Reference: the NIST ThermoML archive (doi:10.1016/j.fluid.2010.02.020)
Values joined by “and” are separate entries in the source; they are usually repeats but may differ in a detail not shown here. Equal entries are not always repeated. Numbers after ± are expanded uncertainties.

Conditions: for mass density: 101.33 kPa, Liquid, Vibrating tube method; for surface tension liquid-gas: Pendant drop shape

Row | Compound | mass density (293.15 K) [kg/m3] | mass density (303.15 K) [kg/m3] | mass density (313.15 K) [kg/m3] | mass density (323.15 K) [kg/m3] | mass density (333.15 K) [kg/m3] | mass density (343.15 K) [kg/m3] | mass density (353.15 K) [kg/m3] | mass density (363.15 K) [kg/m3] | mass density (373.15 K) [kg/m3] | mass density (383.15 K) [kg/m3] | mass density (393.15 K) [kg/m3] | mass density (403.15 K) [kg/m3] | mass density (413.15 K) [kg/m3] | mass density (423.15 K) [kg/m3] | mass density (433.15 K) [kg/m3] | mass density (443.15 K) [kg/m3] | mass density (453.15 K) [kg/m3] | mass density (463.15 K) [kg/m3] | mass density (473.15 K) [kg/m3] | other results
1 | CCn1cc[n+](C)c1.O=S(=O)([N-]S(=O)(=O)C(F)(F)F)C(F)(F)F | 1525 ± 6.1 | 1515.1 ± 6.1 | 1505.3 ± 6.1 | 1495.5 ± 6 | 1485.8 ± 6 | 1476.1 ± 5.9 | 1466.4 ± 5.9 | 1456.7 ± 5.9 | 1447 ± 5.8 | 1437.2 ± 5.8 | 1427.4 ± 5.7 | 1417.5 ± 5.7 | 1407.5 ± 5.7 | 1397.5 ± 5.6 | 1387.3 ± 5.6 | 1377 ± 5.5 | 1366.6 ± 5.5 | 1356 ± 5.4 | 1345.2 ± 5.4 | surface tension liquid-gas (313 K): 35.2 ± 1.1 mN/m; surface tension liquid-gas (313.2 K): 33.8 ± 1.1 mN/m and 34.7 ± 1.1 mN/m; surface tension liquid-gas (332.7 K): 34.2 ± 1.1 mN/m; surface tension liquid-gas (333.3 K): 33.6 ± 1.1 mN/m; surface tension liquid-gas (352.4 K): 33.4 ± 1.1 mN/m; surface tension liquid-gas (353.4 K): 33.4 ± 1.1 mN/m; surface tension liquid-gas (372.7 K): 32.5 ± 1.1 mN/m; surface tension liquid-gas (373.2 K): 31.5 ± 1.1 mN/m; surface tension liquid-gas (392.9 K): 31.4 ± 1.1 mN/m; surface tension liquid-gas (393.2 K): 31.1 ± 1.1 mN/m; surface tension liquid-gas (412.8 K): 30.5 ± 1.1 mN/m; surface tension liquid-gas (413.1 K): 30.1 ± 1.1 mN/m; surface tension liquid-gas (432.5 K): 29.6 ± 1.1 mN/m; surface tension liquid-gas (452.7 K): 27.3 ± 1.4 mN/m; surface tension liquid-gas (453 K): 28.7 ± 1.4 mN/m; surface tension liquid-gas (472.5 K): 25.7 ± 1 mN/m; surface tension liquid-gas (472.7 K): 26.4 ± 1 mN/m; surface tension liquid-gas (512.6 K): 24.6 ± 1 mN/m; surface tension liquid-gas (532.2 K): 23.7 ± 1 mN/m
2 | CCCCCCCCC[n+]1ccn(C)c1.O=S(=O)([N-]S(=O)(=O)C(F)(F)F)C(F)(F)F | 1303.1 ± 5.4 | 1294.2 ± 5.4 | 1285.5 ± 5.3 | 1276.8 ± 5.3 | 1268.3 ± 5.2 | 1259.7 ± 5.2 | 1251.3 ± 5.2 | 1242.8 ± 5.1 | 1234.3 ± 5.1 | 1225.8 ± 5.1 | 1217.4 ± 5 | 1208.8 ± 5 | 1200.3 ± 4.9 | 1191.8 ± 4.9 | 1183.2 ± 4.9 | 1174.5 ± 4.8 | 1165.7 ± 4.8 | 1156.8 ± 4.8 | 1147.8 ± 4.7 | 
3 | CCCn1cc[n+](C)c1.O=S(=O)([N-]S(=O)(=O)C(F)(F)F)C(F)(F)F | 1480.5 ± 6 | 1470.8 ± 5.9 | 1461.1 ± 5.9 | 1451.5 ± 5.8 | 1441.9 ± 5.8 | 1432.4 ± 5.8 | 1422.9 ± 5.7 | 1413.5 ± 5.7 | 1404 ± 5.6 | 1394.5 ± 5.6 | 1384.9 ± 5.6 | 1375.3 ± 5.5 | 1365.6 ± 5.5 | 1355.8 ± 5.4 | 1345.9 ± 5.4 | 1335.9 ± 5.4 | 1325.8 ± 5.3 | 1315.6 ± 5.3 | 1305.1 ± 5.2 | surface tension liquid-gas (312.9 K): 32.5 ± 1.1 mN/m; surface tension liquid-gas (333.6 K): 31.5 ± 1.1 mN/m; surface tension liquid-gas (353.9 K): 30.2 ± 1.1 mN/m; surface tension liquid-gas (373.5 K): 28.8 ± 1.1 mN/m; surface tension liquid-gas (374.2 K): 29.1 ± 1.1 mN/m; surface tension liquid-gas (393.5 K): 29.4 ± 1.1 mN/m; surface tension liquid-gas (394.5 K): 28 ± 1.1 mN/m; surface tension liquid-gas (413.6 K): 28.2 ± 1.1 mN/m; surface tension liquid-gas (414.9 K): 27.1 ± 1.1 mN/m; surface tension liquid-gas (433.3 K): 27.6 ± 1.1 mN/m; surface tension liquid-gas (435.2 K): 26.3 ± 1.1 mN/m; surface tension liquid-gas (453.2 K): 26.8 ± 1 mN/m; surface tension liquid-gas (455.5 K): 26.1 ± 1 mN/m; surface tension liquid-gas (473 K): 24.4 ± 1 mN/m; surface tension liquid-gas (475.7 K): 24.6 ± 1 mN/m
4 | CCCCCCCn1cc[n+](C)c1.O=S(=O)([N-]S(=O)(=O)C(F)(F)F)C(F)(F)F | 1349.5 ± 5.4 | 1340.4 ± 5.4 | 1331.5 ± 5.3 | 1322.6 ± 5.3 | 1313.8 ± 5.3 | 1305 ± 5.2 | 1296.3 ± 5.2 | 1287.6 ± 5.2 | 1278.9 ± 5.1 | 1270.1 ± 5.1 | 1261.4 ± 5.1 | 1252.6 ± 5 | 1243.8 ± 5 | 1235 ± 5 | 1226.1 ± 4.9 | 1217 ± 4.9 | 1208 ± 4.8 | 1198.7 ± 4.8 | 1189.4 ± 4.8 | 
